Measurements reported in publication doi:10.1101/2022.05.12.491652v1 (biorxiv, 2022).
pKi: −log10 of the molar value.

Columns and labels:
[1] = biological target: T1, PfClpQ (Plasmodium falciparum, UniProt Q8I5B6); assay: fluorogenic peptide; format: biochemical
T1 sequence (Q8I5B6 38-207): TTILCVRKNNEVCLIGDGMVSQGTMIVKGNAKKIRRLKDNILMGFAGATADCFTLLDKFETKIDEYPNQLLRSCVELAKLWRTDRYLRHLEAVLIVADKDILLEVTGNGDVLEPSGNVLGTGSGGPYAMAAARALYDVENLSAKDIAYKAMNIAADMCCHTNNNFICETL

[2] = in vitro; details: human, hela cells

Row | pKi [1] | SMILES | CC50 [2]
1 | 6.36 | CCn1nc(-c2ccc(C(=O)OC)cc2)nc2c(=O)n(C)c(=O)nc1-2 [CN172, methyl 4-{1-ethyl-6-methyl-5,7-dioxopyrimido[5,4-e][1,2,4]triazin-3-yl}benzoate] | 9.58 µM
2 | – | Cn1nc(-c2ccncc2)nc2c(=O)n(C)c(=O)nc1-2 [ICGEB-L1, 1,6-dimethyl-3-(pyridin-4-yl)-1H,5H,6H,7H-pyrimido[5,4-e][1,2,4]triazine-5,7-dione] | 8.4 µM
3 | – | CCn1nc(-c2ccc(Cl)cc2)nc2c(=O)n(C)c(=O)nc1-2 [ICGEB-L2, 3-(4-chlorophenyl)-1-ethyl-6-methyl-1H,5H,6H,7H-pyrimido [5,4-e] [1,2,4] triazine-5,7-dione] | 9.93 µM
4 | – | CCn1nc(/C=C/c2ccccc2)[n+]([O-])c2c(=O)n(C)c(=O)nc1-2 [ICGEB-L3, 1-ethyl-6-methyl-5,7-dioxo-3-[(1E)-2-phenylethenyl]-1H,5H,6H,7H-pyrimido[5,4-e][1,2,4]triazin-4-ium-4-olate] | 10 µM
